Test results taken from ChEMBL document CHEMBL3120076, “Structure-activity relationship of Baifuzi-cerebrosides on BKCa channel activation” (Eur J Med Chem, 2014).
Calls of active or inactive are those of the source. The rule behind the calls is not given here.

What was measured:
Format in all cases: cell-based
[1] = tested on: CHO-K1; test: Activation of wild type BK calcium channel (unknown origin) expressed in CHO-K1 cells assessed as increase in channel open probability by whole cell patch-clamp technique relative to control; details: Homo sapiens
[2] = tested on: CHO-K1; test: Activation of wild type BK calcium channel STREX domain-deleted mutant (unknown origin) expressed in CHO-K1 cells assessed as increase in channel open probability at 10 uM at +20 mV holding potential by whole cell patch-clamp technique (reference value: 0.7 +/- 0.1%); details: Homo sapiens
[3] = tested on: CHO-K1; test: Extracellular activation of wild type BK calcium channel (unknown origin) expressed in CHO-K1 cells assessed as increase in whole cell currents at 10 uM by whole cell patch-clamp technique; details: Homo sapiens
[4] = tested on: CHO-K1; test: Activation of wild type BK calcium channel (unknown origin) expressed in CHO-K1 cells assessed as increase in channel open probability at 10 uM at +20 mV holding potential by whole cell patch-clamp technique (reference value: 0.58 +/- 0.03%); details: Homo sapiens
[5] = tested on: CHO-K1; test: Activation of wild type BK calcium channel (unknown origin) expressed in CHO-K1 cells assessed as increase in channel open probability at 5 uM at +20 mV holding potential by whole cell patch-clamp technique (reference value: 0.58 +/- 0.03%); details: Homo sapiens
[6] = tested on: CHO-K1; test: Activation of wild type BK calcium channel (unknown origin) expressed in CHO-K1 cells assessed as increase in channel open probability at 1 uM at +20 mV holding potential by whole cell patch-clamp technique (reference value: 0.58 +/- 0.03%); details: Homo sapiens
[7] = tested on: CHO-K1; test: Activation of wild type BK calcium channel (unknown origin) expressed in CHO-K1 cells assessed as increase in channel open probability at 0.1 uM at +20 mV holding potential by whole cell patch-clamp technique (reference value: 0.58 +/- 0.03%); details: Homo sapiens
[8] = (§1) Activation of wild type BK calcium channel (unknown origin) expressed in CHO-K1 cells assessed as increase in channel open probability at +20 mV holding potential by whole cell patch-clamp technique
[9] = tested on: CHO-K1; test: as §1; details: Homo sapiens

SMILES: CCCCCCCCC/C=C/CC/C=C/[C@@H](O)[C@H](CO[C@@H]1O[C@H](CO)[C@@H](O)[C@H](O)[C@H]1O)NC(=O)[C@H](O)CCCCCCCCCCCCCCCC
- fold change (FC) [1]: 2.03

SMILES: CCCCCCCCC/C=C\CC/C=C/[C@@H](O)[C@H](CO[C@@H]1O[C@H](CO)[C@@H](O)[C@H](O)[C@H]1O)NC(=O)[C@H](O)CCCCCCCCCCCCCCCCCC
- fold change (FC) [1]: 1.89

SMILES: CCCCCCCCC/C=C/CC/C=C/[C@@H](O)[C@H](CO[C@@H]1O[C@H](CO)[C@@H](O)[C@H](O)[C@H]1O)NC(=O)[C@H](O)CCCCCCCCCCCCCCCCCC
- fold change (FC) [1]: 3.12

SMILES: CCCCCCCCC/C=C\CC/C=C/[C@@H](O)[C@H](CO[C@@H]1O[C@H](CO)[C@@H](O)[C@H](O)[C@H]1O)NC(=O)[C@H](O)CCCCCCCCCCCCCCCC
- fold change (FC) [1]: 1.15

SMILES: CCCCCCCCC/C=C\CC/C=C/[C@@H](O)[C@H](CO[C@@H]1O[C@H](CO)[C@@H](O)[C@H](O)[C@H]1O)NC(=O)[C@H](O)CCCCCCCCCCCCCCCCCCCC
- fold change (FC) [1]: 5.34
- Activity [2]: 0.9%
- Activity [3]: Active
- Activity [4]: 4.2%
- Activity [5]: 3.3%
- Activity [6]: 2.4%
- Activity [7]: 0.65%
- EC50 [8]: 1000 nM
- Activity [9]: Dose-dependent effect
